{
  "source": "patent US12510533B2",
  "about": "“Methods for treating multiple myeloma and the use of companion biomarkers for 4-(4-(4-(((2-(2,6-dioxopiperidin-3-yl)-1-oxoisoindolin-4-yl)oxy)methyl)benzyl)piperazin-1-yl)-3-fluorobenzonitrile” (Celgene Corporation, priority 2018, dated 2025)",
  "key": {"[1]": {"test_system": "Aiolos, Ikaros, and ZFP91", "assay": "Phase 1 study, IHC of bone marrow aspirate clots", "assay_type": "in vivo, human", "details": "before and during treatment (Cycle 1)", "from_the_text": "FIG. 26A-FIG. 26E illustrate that the effect of Compound 2 on biomarker expression in CD138+ plasma cells from relapsed/refractory multiple myeloma patients. (FIG. 26A) Aiolos, (FIG. 26B) Ikaros, (FIG. 26C) ZFP91, (FIG. 26D) c-Myc, and (FIG. 26E) IRF4.\nBone marrow aspirate samples were taken before and during Compound 2 treatment (Cycle 1). Clots were made from each sample and processed into formalin fixed paraffin embedded blocks. Immunohistochemistry (IHC) assays were used to evaluate the biomarker expression. IHC scores were determined based on percent and intensity of positive staining."}, "Aiolos and Ikaros": {"test_system": "Aiolos and Ikaros", "assay": "Aiolos and Ikaros degradation and re-expression by flow cytometry in H929-1051 and OPM2-P10 cells", "assay_type": "cell-based, human", "description": "The cell lines were treated with a single continuous exposure to Compound 2, with no washout, and the levels of Aiolos and Ikaros were measured by flow cytometry. After treatment there was greater than 70% degradation of Aiolos and Ikaros within 3 to 6 hours, depending on the cell line (FIG. 7A and FIG. 7B). The depletion of substrates was sustained for up to 70 hours in H929-1051 cells or up to 100 hours in OPM2-P10 cells (FIG. 7A and FIG. 7B). Increasing the concentration 10-fold to 0.1 μM produced little to no additional degradation (FIG. 7A and FIG. 7B).\nThe effect of transient exposures of H929-1051 cells to Compound 2 on the degradation of Aiolos and Ikaros was also evaluated. A short transient exposure of 15 minutes at 0.1 μM Compound 2 induced Aiolos and Ikaros degradation (FIG. 8). Although the extent of degradation (25% to 50%) was not complete, a prolonged pharmacodynamic (PD) effect was seen that lasted between 25 and 50 hours post-exposure (FIG. 8).\nTo further understand the kinetics of Compound 2 exposure and Aiolos and Ikaros degradation, a longer exposure of 6 hours to Compound 2 (0.01 and 0.1 μM), followed by washout was investigated. Treatment with Compound 2 produced greater than 70% degradation of Aiolos and Ikaros (FIG. 9). […] Greater than 75% substrate recovery was seen by 25 hours in cells exposed to 0.01 μM Compound 2 and within 75 to 100 hours in cultures exposed to 0.1 μM Compound 2 (FIG. 9)."}, "H929-1051": {"test_system": "H929-1051", "assay": "Apoptosis by Caspase-Glo 3/7 normalized to CellTiter-Glo in H929-1051 cells, dexamethasone alone or with compound", "assay_type": "cell-based, human", "details": "72 hours; Compound 2 0.001, 0.01 or 0.1 μM", "method": "Dexamethasone was dispensed at 20 concentrations, using an acoustic dispenser. The plates were sealed and stored at room temperature for the next day. […] Cells were dispensed into the assay plates with a Multidrop dispenser and duplicate plates were made for the assay. Measurement of apoptosis was made at 72 hours post-compound treatment using a Caspase-Glo 3/7 and CellTiter-Glo Assays. The Caspase-Glo 3/7 luminescence was normalized to the CellTiter-Glo luminescence to account for differences in cell number. The fold change of the treated sample was calculated as follows: normalized caspase of treated sample/average of normalized DMSO control."}, "Ikaros": {"biological_target": "Ikaros (Homo sapiens, UniProt Q13422+Q96SW2)", "sequence (Q13422 whole entry)": "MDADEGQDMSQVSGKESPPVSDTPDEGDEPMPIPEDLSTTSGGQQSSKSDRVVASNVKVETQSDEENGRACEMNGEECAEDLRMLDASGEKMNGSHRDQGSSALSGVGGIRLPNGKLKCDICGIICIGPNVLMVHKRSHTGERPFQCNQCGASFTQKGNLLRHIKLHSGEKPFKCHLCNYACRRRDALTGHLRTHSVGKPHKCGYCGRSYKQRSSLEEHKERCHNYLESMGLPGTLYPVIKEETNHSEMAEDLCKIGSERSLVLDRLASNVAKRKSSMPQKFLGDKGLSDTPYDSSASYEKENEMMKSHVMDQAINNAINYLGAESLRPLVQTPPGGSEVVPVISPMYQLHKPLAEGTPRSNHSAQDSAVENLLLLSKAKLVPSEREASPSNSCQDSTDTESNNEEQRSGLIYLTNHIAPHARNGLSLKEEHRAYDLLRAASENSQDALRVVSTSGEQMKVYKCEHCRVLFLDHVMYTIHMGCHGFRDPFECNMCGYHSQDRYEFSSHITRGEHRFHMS", "sequence (Q16531 2-1140, further chain)": "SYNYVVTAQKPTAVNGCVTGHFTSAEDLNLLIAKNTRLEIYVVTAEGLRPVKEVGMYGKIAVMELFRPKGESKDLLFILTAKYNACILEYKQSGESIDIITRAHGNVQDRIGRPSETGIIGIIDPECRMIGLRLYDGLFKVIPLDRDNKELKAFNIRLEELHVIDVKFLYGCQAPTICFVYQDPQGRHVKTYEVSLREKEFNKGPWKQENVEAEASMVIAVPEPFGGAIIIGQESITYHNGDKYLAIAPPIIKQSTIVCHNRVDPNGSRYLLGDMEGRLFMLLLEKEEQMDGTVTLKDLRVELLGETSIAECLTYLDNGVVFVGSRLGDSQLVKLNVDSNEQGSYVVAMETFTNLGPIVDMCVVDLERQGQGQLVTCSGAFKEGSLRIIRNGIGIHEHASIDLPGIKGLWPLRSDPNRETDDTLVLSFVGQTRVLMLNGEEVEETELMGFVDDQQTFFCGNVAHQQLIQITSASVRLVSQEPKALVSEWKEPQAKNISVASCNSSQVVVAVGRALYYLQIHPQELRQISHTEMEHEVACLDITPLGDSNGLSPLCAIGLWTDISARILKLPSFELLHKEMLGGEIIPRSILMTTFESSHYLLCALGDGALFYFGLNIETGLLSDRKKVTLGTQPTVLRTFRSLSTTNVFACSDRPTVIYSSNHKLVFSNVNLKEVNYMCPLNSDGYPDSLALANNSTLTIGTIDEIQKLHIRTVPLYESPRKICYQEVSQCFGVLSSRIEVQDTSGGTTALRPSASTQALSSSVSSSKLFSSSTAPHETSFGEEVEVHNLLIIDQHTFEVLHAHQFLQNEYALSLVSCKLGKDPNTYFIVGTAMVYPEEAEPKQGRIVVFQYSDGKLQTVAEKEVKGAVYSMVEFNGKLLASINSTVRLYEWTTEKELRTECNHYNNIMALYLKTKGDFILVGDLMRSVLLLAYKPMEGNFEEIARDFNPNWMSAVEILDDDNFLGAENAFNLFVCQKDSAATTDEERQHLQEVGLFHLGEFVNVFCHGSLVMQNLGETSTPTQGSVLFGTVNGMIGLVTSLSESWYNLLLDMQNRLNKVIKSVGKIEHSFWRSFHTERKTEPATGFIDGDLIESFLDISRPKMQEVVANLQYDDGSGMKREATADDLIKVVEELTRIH", "sequence (Q96SW2 whole entry)": "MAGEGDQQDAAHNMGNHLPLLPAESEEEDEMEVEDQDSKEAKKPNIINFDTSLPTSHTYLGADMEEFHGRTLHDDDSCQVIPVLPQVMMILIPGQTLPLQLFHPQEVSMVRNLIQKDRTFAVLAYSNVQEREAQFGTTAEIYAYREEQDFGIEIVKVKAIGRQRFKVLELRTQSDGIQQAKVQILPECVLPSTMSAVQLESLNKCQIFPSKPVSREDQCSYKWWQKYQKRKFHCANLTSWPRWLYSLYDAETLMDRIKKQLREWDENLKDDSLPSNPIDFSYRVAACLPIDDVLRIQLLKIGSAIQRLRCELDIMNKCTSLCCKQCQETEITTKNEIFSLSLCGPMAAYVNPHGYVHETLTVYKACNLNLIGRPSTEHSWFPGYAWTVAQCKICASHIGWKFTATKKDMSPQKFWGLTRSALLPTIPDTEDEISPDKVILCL", "assay": "Ikaros level by flow cytometry in ex vivo cultures of healthy donor bone marrow CD34+ cells (neutrophil maturation)", "assay_type": "cell-based", "set-up": "The effects of Compound 2 on the degradation of Ikaros in CD4+ and CD8+ T cells; endogenous in cells; host or cells: CD4+ and CD8+ T cells of healthy donors; CD34+ bone marrow cells of healthy donors; CD3+ T cells of multiple myeloma patients", "description": "Ex vivo cultures of bone marrow (BM) CD34^+ cells from healthy donors (HD) were used to investigate the effect of Compound 2 on neutropenia. […] Therefore, we monitored the effects of Compound 2 on mature neutrophils.\nIkaros protein level was analyzed by flow cytometry after each exposure period, and also at Days 19, 21, and 23 corresponding to 3, 5, and 7 days following the last exposure, respectively. CD34^+ cells derived from healthy donor bone marrow were exposed to different concentrations of Compound 2 and different incubation schedules. The percentage of Ikaros content (normalized to the DMSO control) following Compound 2 exposure at concentrations of 1, 10, and 100 nM for 2, 4, and 6 hours on each of 1, 2, or 3 consecutive days starting on Day 14 were measured. At the end of the exposure period, Compound 2 was removed and cells were incubated in the absence of Compound 2 (recovery period). Ikaros was measured by flow cytometry after incubation with Compound 2 (Days 14 to 16) and during recovery on Days 19, 21, and 23. Ikaros levels were reduced during Compound 2 exposure and recovered following drug withdrawal in a concentration-dependent manner with no significant differences noted in association with different exposure schedules (FIG. 13). Ikaros levels began returning to normal after at least 3 days following washout, pre-dating full recovery of maturation of late-stage neutrophil precursors.\nTo further explore the role of Ikaros in relationship to the maturation of neutrophil progenitors, Ikaros protein levels were analyzed by flow cytometry after each exposure and every other day following the last exposure to Compound 2. […] After 3 days of exposure to Compound 2, the recovery of Ikaros began in a concentration-dependent manner just 24 hours after drug washout and returned to control levels after 10 days (FIG. 14; FIG. 16B). With 5 days of exposure to Compound 2, recovery of Ikaros started on Day 17, three days after drug washout (FIG. 15). […]"}, "OPM2 cells": {"test_system": "OPM2 cells", "assay": "cells", "assay_type": "cell-based, human", "details": "for IC50: Homo sapiens", "description": "The effect of the stabilizing mutations on cell proliferation was also measured."}, "sBCMA": {"test_system": "sBCMA", "assay": "Phase 1 study, sBCMA in serum by ELISA", "assay_type": "in vivo, human", "details": "one subject; with dexamethasone", "description": "This is an open-label, multi-center, international, Phase 1 study to assess the safety, PK/PD and preliminary efficacy of Compound 2 in combination with dexamethasone in subjects with RRMM.\nSerum samples were taken before and during Compound 2 treatment at specified time points. The expression of sBCMA was measured by an ELISA assay."}, "Ikaros and Aiolos": {"test_system": "Ikaros and Aiolos", "assay": "Immunoblot of Ikaros and Aiolos in DF15R and DF15R-human CRBN WT cells", "assay_type": "cell-based", "details": "0.1 μM, 4 hours", "description": "Shown are Cereblon, Ikaros, and Aiolos immunoblots of extracts from DF15R and DF15R-human CRBN^WT cells that were incubated with DMSO, pomalidomide, or Compound 2 at 0.1 μM for 4 hours. Tubulin is a loading control.\nTo determine whether cereblon could serve as a biomarker for predicting response to Compound 2, the myeloma cell line DF15R was treated with Compound 2."}, "[2]": {"details": "continuous exposure, OPM2-P10 cells"}},
  "note": "Like-named read-outs stand apart in the source and are kept apart here.",
  "data": [
    {"smiles": "N#Cc1ccc(N2CCN(Cc3ccc(COc4cccc5c4CN([C@H]4CCC(=O)NC4=O)C5=O)cc3)CC2)c(F)c1", "note": "[Compound 2, (S)-4-(4-(4-(((2-(2,6-dioxopiperidin-3-yl)-1-oxoisoindolin-4-yl)oxy)methyl)benzyl)piperazin-1-yl)-3-fluorobenzonitrile]", "values": [
      {"measurement": "biomarker expression in the tumor compartment (IHC)", "setting": "[1]", "value": "induced degradation of Aiolos, Ikaros, and ZFP91"},
      {"measurement": "degradation of Aiolos and Ikaros", "setting": "Aiolos and Ikaros; 6 hours exposure (0.01 and 0.1 μM) followed by washout", "value": "greater than 70%"},
      {"measurement": "duration of sustained depletion of substrates", "setting": "Aiolos and Ikaros; continuous exposure, H929-1051 cells", "value": "up to 70 hours"},
      {"measurement": "duration of sustained degradation of both proteins (Aiolos and Ikaros)", "setting": "Aiolos and Ikaros; [2]", "value": "more than 150 hours"},
      {"measurement": "duration of sustained depletion of substrates", "setting": "Aiolos and Ikaros; [2]", "value": "up to 100 hours"},
      {"measurement": "degradation of Aiolos and Ikaros", "setting": "Aiolos and Ikaros; single continuous exposure, no washout, H929-1051 and OPM2-P10", "value": "greater than 70%"},
      {"measurement": "shift of the onset of dexamethasone activity in the presence of Compound 2", "setting": "H929-1051", "value": 1, "unit": "log"},
      {"measurement": "time following washout at which Ikaros levels began returning to normal", "setting": "Ikaros; 2, 4, 6 hour exposures on 1 to 3 consecutive days from Day 14", "value": "at least 3 days"},
      {"measurement": "time for Ikaros to return to control levels", "setting": "Ikaros; 3 days of 6-hour exposures", "value": 10, "unit": "days"},
      {"measurement": "Ikaros degradation after one exposure", "setting": "Ikaros; all concentrations (1, 10, 100 nM) and all exposure schedules", "value": "fully degraded"},
      {"measurement": "IC50", "setting": "OPM2 cells; OPM-2, cells overexpressing stabilized Ikaros mutants (Ikaros-Q146H or Ikaros-G151A), read-out: concentration at which cells had their proliferation inhibited by 50%", "value": "> 100", "unit": "nM"},
      {"measurement": "IC50", "setting": "OPM2 cells; OPM-2, overexpressing Aiolos Q147H, read-out: Inhibition of Proliferation of OPM2 Cells IC50", "value": 0.06, "unit": "nM"},
      {"measurement": "IC50", "setting": "OPM2 cells; OPM-2, overexpressing Aiolos, read-out: Inhibition of Proliferation of OPM2 Cells IC50", "value": 0.08, "unit": "nM"},
      {"measurement": "IC50", "setting": "OPM2 cells; OPM-2, overexpressing Ikaros-G151A, read-out: Inhibition of Proliferation of OPM2 Cells IC50", "value": "> 100", "unit": "nM"},
      {"measurement": "IC50", "setting": "OPM2 cells; OPM-2, overexpressing Ikaros-Q146H, read-out: Inhibition of Proliferation of OPM2 Cells IC50", "value": "> 100", "unit": "nM"},
      {"measurement": "IC50", "setting": "OPM2 cells; OPM-2, overexpressing Ikaros, read-out: Inhibition of Proliferation of OPM2 Cells IC50", "value": 0.13, "unit": "nM"},
      {"measurement": "IC50", "setting": "OPM2 cells; OPM-2, overexpressing ZFP91-Q400H, read-out: Inhibition of Proliferation of OPM2 Cells IC50", "value": 0.08, "unit": "nM"},
      {"measurement": "increase of the 50% inhibitory concentration relative to the parental cells", "setting": "OPM2 cells; cells overexpressing stabilized Ikaros mutants", "value": "more than 200 fold"},
      {"measurement": "decrease in sBCMA from baseline", "setting": "sBCMA", "value": "> 80", "unit": "%"},
      {"measurement": "degradation of Ikaros or Aiolos", "setting": "Ikaros and Aiolos; DF15R cells, no detectable CRBN", "value": "did not show any degradation"},
      {"measurement": "degradation of Ikaros and Aiolos after reintroduction of CRBN", "setting": "Ikaros and Aiolos; DF15R-human CRBN WT cells", "value": "reactivated"}
    ]}
  ]
}
